In this test the target is hDGAT2 (Homo sapiens (Human), UniProt Q96PD7). The test can be described thus: In vitro DGAT2 assay, determination of IC50 values. It counts as biochemical. The note with it: geometric mean; hDGAT2 membrane fraction, [1-14C]decanoyl-CoA and 1,2-didecanoyl-sn-glycerol substrates.

As a reminder, the IC50 is the concentration that inhibits the measured activity by half. Lower therefore signals inhibition by little substance.

Structures are written as SMILES.

hDGAT2, sequence (Q96PD7 whole entry): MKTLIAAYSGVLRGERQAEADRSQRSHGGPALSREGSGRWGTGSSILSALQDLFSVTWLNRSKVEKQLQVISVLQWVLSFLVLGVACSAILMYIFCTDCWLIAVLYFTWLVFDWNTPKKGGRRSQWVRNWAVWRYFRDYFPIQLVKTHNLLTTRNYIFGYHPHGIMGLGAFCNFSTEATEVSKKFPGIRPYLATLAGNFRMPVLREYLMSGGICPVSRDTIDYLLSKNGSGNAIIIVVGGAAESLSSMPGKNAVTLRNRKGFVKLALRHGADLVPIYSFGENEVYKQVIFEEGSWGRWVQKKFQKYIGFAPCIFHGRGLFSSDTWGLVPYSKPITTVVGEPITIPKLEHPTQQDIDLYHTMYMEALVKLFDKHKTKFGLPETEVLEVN
Procedure: For the expression of hDGAT2, SF9 cells (20 L) grown in Sf900II media were infected with hDGAT2 baculovirus at a multiplicity of infection of 1 in a Wave Bioreactor System 20/50P wave bag (GE Healthcare). After 40 hours of infection, the cells were then harvested by centrifugation at 5,000×g. The cell pellets were washed by resuspending in phosphate buffered saline (PBS) and collected by centrifugation at 5,000×g. The cell paste was flash frozen in liquid N2 and stored at −80° C. until needed. All operations below were at 4° C. unless otherwise noted. The cells were resuspended in lysis buffer (50 mM Tris-HCl, pH 8.0, 250 mM sucrose) including 1 mM ethylenediaminetetraacetic acid (EDTA) and the complete protease inhibitor cocktail (Roche Diagnostics) at a ratio of 3 ml buffer per 1 g cell paste. The cells were lysed by dounce homogenizer. The cell debris was removed by centrifugation at 1,000×g for 20 min, and the supernatant was centrifuged at 100,000×g for 1 hour. […]
For determination of IC50 values, the reactions were carried out in 384-well white Polyplates (Perkin Elmer) in a total volume of 20 μL. […] Plates were centrifuged at 2,000×g for 1 minute in an Allegra 6R Centrifuge (Beckman Coulter) and then were sealed again with fresh covers before reading in a 1450 Microbeta Wallac Trilux Scintillation Counter (Perkin Elmer).

With `CCOc1cccnc1Oc1cncc(-c2ncc(C(=O)N[C@H]3CCOC3)cn2)c1` [Example 1, (S)-2-(5-((3-ethoxypyridin-2-yl)oxy)pyridin-3-yl)-N-(tetrahydrofuran-3-yl)pyrimidine-5-carboxamide], the IC50 is 17.2 nM.
